# Laboratory results as given in patent US4933332A, “11-desoxy-17-α-hydroxycorticosterone derivatives” (priority 1988, dated 1990).
# Tests used:
# [1] = system: Small intestine adenocarcinoma AKATON; assay: Duration of the antitumor effect, small intestine adenocarcinoma AKATON; type: in vivo, mice and rats
# Source text: (§1) For the study of the antitumor activity of the compounds according to the present invention use was made of regrafted hemoblastoses, grafted solid tumors, induced and spontaneous tumors of mice and rats. The following models were used: L 1210, P-388, hemocytoblastosis La, MOPC-406, viral lympholeukosis Mazurenko LMC-1, Ca-755, mammary carcinoma metastasizing into lungs KML, alveolar mammary cancer RMK-1, small intenstine adenocarcinoma AKATON, large intestine adenocarcinoma AKATOL, Lewis lung carcinoma LL, lung adenocarcinoma RL-67, hepatomae G-22c, G-60, G-61, sarcomae S-37 and S-180, DMBA (dimethylbenzanthracene)-induced and spontaneous mammary tumors, and […] (dimethylhydrazine)-induced tumors of the large intestine.
# (§2) The studies were carried out on line mice and their first-generation hybrids, as well as on mongrel mice and rats.
# (§3) The compounds were administered to the animals hypodermally in kernel oil. For the purpose of comparison, a known hormonocytostatic estracyte (estra-1,3,5-(10)treine-3,17β-diol-3N-[bis-(2-chloroethyl)carbamate-17-sodium phosphate] was used which was administered hypodermally in a solution of a 0.9% NaCl, chlorphenacyl and chloroambucyl which were administered intraperitoneally in a 10% solution of ethanol, sarcolysine (β-[p-di(2-chloroethyl)aminophenyl]-α-alanine hydrochloride)--intraperitoneally in a 0.9% solution of NaCl, prednisolone (pregnadiene-1,4-triol-11β,17α,21-dione-3,20)--per os in a starch size.
# (§4) Criteria of the antitumor activity of the compounds according to the present invention are: extension of the lifespan of the animals (ELA, %) and tumor growth inhibition (TGI, %). [formula] T--average lifespan of the treated animals; C--average lifespan of the control animals. [formula] O--average tumor volume in the group of treated animals; K--average tumor volume in the group of control animals.
# [2] = system: DMBA-induced mammary tumors of rats; assay: Effect on DMBA-induced breast tumors in repeated treatment courses; type: in vivo
# Source text: as §1, §3, §4
# (§5) In the case of using spontaneous or induced tumors, by means of carcinogenic substances, the criteria of the antitumor effect are: TGI, % or decrease in the tumor size, %, as compared to its initial value. The treatment of spontaneous and induced tumors was initiated after achieving, by these tumors, of a particular size excluding the possibility of a spontaneous regression.
# [3] = system: Breast carcinoma metastasizing into lungs KML; assay: Duration of the antitumor effect, breast carcinoma KML; type: in vivo, mice and rats
# Source text: as §1, §2, §3, §4
# [4] = system: Spontaneous mammary tumors of mice; assay: Effect on spontaneous breast tumors in repeated treatment courses; type: in vivo
# Source text: as §1, §3, §4, §5
# [5] = system: Large intestine adenocarcinoma AKATOL; assay: Antitumor effect on grafted large intestine adenocarcinoma AKATOL; type: in vivo, mice and rats; details: in vivo
# [6] = system: cytoplasmatic receptors of glucocorticoids in human lung cancer; assay: Inhibition of specific combining of [^3 H]-dexamethazone, human lung cancer; type: binding
# Source text: The inhibition, thereby, of a specific combining of [^3 H]-dexamethazone in tumors of animals reaches 70-100%. 11-Desoxy-17-α-hydroxy-21-[p-di(2-chloroethyl)aminophenylacetate] corticosterone also reacts with cytoplasmatic receptors of glucocorticoids in tumors in human beings.
# [7] = compared to the size prior to the treatment
smiles,measurement,setting,value
C[C@]12CCC(=O)C=C1CC[C@@H]1[C@@H]2CC[C@@]2(C)[C@H]1CC[C@]2(O)C(=O)COC(=O)Cc1ccc(N(CCCl)CCCl)cc1 [11-desoxy-17α-hydroxy-21-[p-di(2-chloroethyl)-aminophenylacetate] corticosterone],Extension of the lifespan,"[1]; 15 mg/kg/24 h × 5, days 2-6",46%
same,Tumor growth inhibition,"[1]; 15 mg/kg/24 h × 5, days 2-6, day 15 of experiment",66%
same,Tumor growth inhibition,"[1]; 15 mg/kg/24 h × 5, days 2-6, day 22 of experiment",55%
same,Tumor growth inhibition,"[1]; 15 mg/kg/24 h × 5, days 2-6, day 29 of experiment",46%
same,Increased lifespan,"[2]; DMBA-induced, rats, 15 mg/kg/24 h × 5, 2 courses, 5 weeks interval",18%
same,"Decrease or increase (+) of the tumor, % of the initial one","[2]; DMBA-induced, rats, 15 mg/kg/24 h × 5, 2 courses, 5 weeks interval, week 1",33%
same,"Decrease or increase (+) of the tumor, % of the initial one","[2]; DMBA-induced, rats, 15 mg/kg/24 h × 5, 2 courses, 5 weeks interval, week 2",32%
same,"Decrease or increase (+) of the tumor, % of the initial one","[2]; DMBA-induced, rats, 15 mg/kg/24 h × 5, 2 courses, 5 weeks interval, week 3",11%
same,"Decrease or increase (+) of the tumor, % of the initial one","[2]; DMBA-induced, rats, 15 mg/kg/24 h × 5, 2 courses, 5 weeks interval, week 4",24%
same,"Decrease or increase (+) of the tumor, % of the initial one","[2]; DMBA-induced, rats, 15 mg/kg/24 h × 5, 2 courses, 5 weeks interval, week 5",+26%
same,"Decrease or increase (+) of the tumor, % of the initial one","[2]; DMBA-induced, rats, 15 mg/kg/24 h × 5, 2 courses, 5 weeks interval, week 6",23%
same,"Decrease or increase (+) of the tumor, % of the initial one","[2]; DMBA-induced, rats, 15 mg/kg/24 h × 5, 2 courses, 5 weeks interval, week 7",+3%
same,"Decrease or increase (+) of the tumor, % of the initial one","[2]; DMBA-induced, rats, 15 mg/kg/24 h × 5, 2 courses, 5 weeks interval, week 8",13%
same,reduction in size of induced tumors in breasts,[2]; [7],causes reduction in size of induced and spontaneous tumors
same,Extension of the lifespan,"[3]; 45 mg/kg × 1, day 10",57%
same,Tumor growth inhibition,"[3]; 45 mg/kg × 1, day 10, day 15 of experiment",80%
same,Tumor growth inhibition,"[3]; 45 mg/kg × 1, day 10, day 22 of experiment",53%
same,Tumor growth inhibition,"[3]; 45 mg/kg × 1, day 10, day 29 of experiment",61%
same,activity in repeated treatment courses,[4]; Table 4,reveals activity in repeated treatment courses
same,reduction in size of spontaneous tumors in breasts,[4]; [7],causes reduction in size of induced and spontaneous tumors
same,Increased lifespan,"[4]; spontaneous, mice, 15 mg/kg/24 h × 5, 2 courses, 3 weeks interval",11%
same,"Decrease or increase (+) of the tumor, % of the initial one","[4]; spontaneous, mice, 15 mg/kg/24 h × 5, 2 courses, 3 weeks interval, week 1",23%
same,"Decrease or increase (+) of the tumor, % of the initial one","[4]; spontaneous, mice, 15 mg/kg/24 h × 5, 2 courses, 3 weeks interval, week 2",37%
same,"Decrease or increase (+) of the tumor, % of the initial one","[4]; spontaneous, mice, 15 mg/kg/24 h × 5, 2 courses, 3 weeks interval, week 3",+7%
same,"Decrease or increase (+) of the tumor, % of the initial one","[4]; spontaneous, mice, 15 mg/kg/24 h × 5, 2 courses, 3 weeks interval, week 4",64%
same,"Decrease or increase (+) of the tumor, % of the initial one","[4]; spontaneous, mice, 15 mg/kg/24 h × 5, 2 courses, 3 weeks interval, week 5",20%
same,"Decrease or increase (+) of the tumor, % of the initial one","[4]; spontaneous, mice, 15 mg/kg/24 h × 5, 2 courses, 3 weeks interval, week 6",50%
same,"Decrease or increase (+) of the tumor, % of the initial one","[4]; spontaneous, mice, 15 mg/kg/24 h × 5, 2 courses, 3 weeks interval, week 7",25%
same,"Decrease or increase (+) of the tumor, % of the initial one","[4]; spontaneous, mice, 15 mg/kg/24 h × 5, 2 courses, 3 weeks interval, week 8",16%
same,Maximum tumor growth inhibition,[5],98%
same,inhibition of specific combining of [^3 H]-dexamethazone,[6],83%
